Test results: patent US8937077B2, “Bicyclic diamines as janus kinase inhibitors” (Merck Sharp & Dohme Corp., priority 2010, dated 2015)
Where two headings read alike, the source gives them in different places.

Biological target: T1, Jak1 (Homo sapiens, UniProt P23458)
T1 construct: using a recombinant purified GST-tagged catalytic domain for each enzyme; GST; purchased Invitrogen M4290
Test: Jak Biochemical HTRF Assay (Jak1)
Conditions: recombinant GST-tagged catalytic domain
Text: Compounds of formula I can be prepared according to the general procedures described in the Schemes and Examples herein, using appropriate materials. Representative compounds of the present invention are exemplified herein below. The compounds exemplified are not, however, to be construed as limiting the scope of the invention in any manner. The examples further illustrate details for the preparation of the compounds of the present invention. Those skilled in the art will readily understand that known variations of protecting groups, of reagents, as well as of the conditions and processes of the following preparative procedures, can be used to prepare these compounds. It is also understood that whenever a chemical reagent is not commercially available, such a chemical reagent can be readily prepared by those skilled in the art by either following or adapting known methods described in the literature or described herein. Chiral analogs were prepared via incorporation of chiral reagents or obtained after chiral chromatography separation of a racemically generated analog. All temperatures are degrees Celsius unless otherwise noted. Mass spectra (MS) were measured either by electrospray ion-mass spectroscopy (ESMS) or by atmospheric pressure chemical ionization mass spectroscopy (APCI). Jak1 data were obtained using the in vitro assay described below.
Jak Biochemical HTRF Assay Protocol
The ability of compounds to inhibit the activity of Jak1, Jak2, Jak3, and Tyk2 was measured using a recombinant purified GST-tagged catalytic domain for each enzyme (Invitrogen Jak1 #M4290, […]) in an HTRF format biochemical assay. The reactions employed a common peptide substrate, LCB-EQEDEPEGDYFEWLW-NH2 (in-house). The basic assay protocol is as follows: First, […] of diluted compounds in DMSO were dispensed into the wells of a dry 384-well Black plate (Greiner #781076) using a Labcyte Echo 555 acoustic dispenser. Subsequent reagent additions employed an Agilent Bravo. Next, 18 μL, of 1.11X enzyme and 1.11X substrate in 1X assay buffer (Invitrogen kinase buffer #PV3189, 2 mM DTT, 0.05% BSA) were added to the wells and shaken and then preincubated for 30 minutes at room temperature to allow compound binding to equilibrate. After equilibration, 2 μL of 10X ATP in 1X assay buffer was added to initiate the kinase reaction and the plates were shaken and then incubated at room temperature for 120 minutes. At the end of the incubation, 20 μL of 2X stop buffer (streptavidin-Dylight (Thermo #21845), Eu-tagged pY20 antibody (Perkin Elmer #AD0067), EDTA, HEPES, and Triton) was added to quench the reaction. Plates were shaken and centrifuged and then incubated 60 minutes at room temperature and then read on a Perkin Elmer Envision (λex=337 nm, λem=665 and 615 nm, TRF delay time=20 μs). HTRF signal=10,000*665 nm reading/615 nm reading. After normalization to untreated controls, the percent inhibition of the HTRF signal at each compound concentration was calculated. The plot of percent inhibition versus the log of compound concentration was fit with a 4-parameter dose response equation to calculate IC50 values.

[1] = IC50 class, read-out: Jak1 activity
[2] = 31.8 μM ATP, read-out: Representative IC50 values

T1 sequence (P23458 875-1153 limits assumed): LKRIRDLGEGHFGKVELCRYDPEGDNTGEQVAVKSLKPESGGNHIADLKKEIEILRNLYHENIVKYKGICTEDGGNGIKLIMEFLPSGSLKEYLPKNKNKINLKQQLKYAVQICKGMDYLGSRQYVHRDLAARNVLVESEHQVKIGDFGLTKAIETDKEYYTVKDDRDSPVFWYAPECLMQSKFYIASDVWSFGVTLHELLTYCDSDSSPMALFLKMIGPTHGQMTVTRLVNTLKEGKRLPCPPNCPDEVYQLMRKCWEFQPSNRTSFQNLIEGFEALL

Row | SMILES | IC50 [1] | IC50 [2]
1 | O=C(O)c1ccc(CCCN2CCC[C@@H]3[C@H]2CCN3c2ncnc3[nH]ccc23)cc1 [Example 14, 4-{3-[(3aR,7aR)-1-(7H-pyrrolo[2,3-d]pyrimidin-4-yl)octahydro-4H-pyrrolo[3,2-b]pyridin-4-yl]propyl}benzoic acid] | 100 to 1000 nM | –
2 | N#Cc1ccc(C(=O)N2CCC[C@@H]3[C@H]2CCN3c2ncnc3[nH]ccc23)cc1 [Example 29-29, 4-{[(3aR,7aR)-1-(7H-pyrrolo[2,3-d]pyrimidin-4-yl)octahydro-4H-pyrrolo[3,2-b]pyridin-4-yl]carbonyl}benzonitrile] | 10 to 100 nM | –
3 | O=C(c1ccccc1)N1CCCC2C1CCN2c1ncnc2[nH]ccc12 (racemic) [Example 29-3, 4-[4-(phenylcarbonyl)octahydro-1H-pyrrolo[3,2-b]pyridin-1-yl]-7H-pyrrolo[2,3-d]-pyrimidine] | 10 to 100 nM | –
4 | O=C(c1cccc2ccncc12)N1CCC[C@@H]2[C@H]1CCN2c1ncnc2[nH]ccc12 [Example 29-39, 8-{[(3aR,7aR)-1-(7H-pyrrolo[2,3-d]pyrimidin-4-yl)octahydro-4H-pyrrolo[3,2-b]pyridin-4-yl]carbonyl}isoquinoline] | 10 to 100 nM | –
5 | O=C(OCc1ccccc1)N1CCC2C1CCCN2c1ncnc2[nH]ccc12 [Example 16, (3aS,7aS and 3aR,7aR) benzyl 4-(7H-pyrrolo[2,3-d]pyrimidin-4-yl)octahydro-1H-pyrrolo[3,2-b]pyridine-1-carboxylate] | 10 to 100 nM | 31 nM
6 | NCc1ccc(COC(=O)N2CCC[C@@H]3[C@H]2CCN3c2ncnc3[nH]ccc23)cc1 [Example 9, 4-(aminomethyl)benzyl (3aR,7aR)-1-(7H-pyrrolo[2,3-d]pyrimidin-4-yl)octahydro-4H-pyrrolo[3,2-b]pyridine-4-carboxylate] | 100 to 1000 nM | –
7 | O=C(OCc1ccncc1)N1CCCC2C1CCN2c1ncnc2[nH]ccc12 (stereo not shown) [Example 3-13, pyridin-4-ylmethyl 1-(7H-pyrrolo[2,3-d]pyrimidin-4-yl)octahydro-4H-pyrrolo[3,2-b]-pyridine-4-carboxylate] | 10 to 100 nM | –
8 | CCC(=O)N1CCC[C@@H]2[C@H]1CCN2c1ncnc2[nH]ccc12 (single isomer, unassigned) [Example 29-7] | 100 to 1000 nM | –
9 | O=C(c1cccc2ccccc12)N1CCC[C@@H]2[C@H]1CCN2c1ncnc2[nH]ccc12 [Example 29-20, 4-[(3aR,7aR)-4-(naphthalen-1-ylcarbonyl)octahydro-1H-pyrrolo[3,2-b]pyridin-1-yl]-7H-pyrrolo[2,3-d]pyrimidine] | 10 to 100 nM | –
10 | O=C(c1cccs1)N1CCC[C@@H]2[C@H]1CCN2c1ncnc2[nH]ccc12 [Example 29-28, 4-[(3aR,7aR)-4-(thiophen-2-ylcarbonyl)octahydro-1H-pyrrolo[3,2-b]pyridin-1-yl]-7H-pyrrolo[2,3-d]pyrimidine] | 1 to 10 nM | 5 nM
11 | O=C(c1c[nH]c2ccncc12)N1CCC[C@@H]2[C@H]1CCN2c1ncnc2[nH]ccc12 [Example 29-45, 4-[(3aR,7aR)-4-(1H-pyrrolo[3,2-c]pyridin-3-ylcarbonyl)octahydro-1H-pyrrolo[3,2-b]pyridin-1-yl]-7H-pyrrolo[2,3-d]pyrimidine] | 10 to 100 nM | –
12 | O=C(OCCOCC(F)(F)F)N1CCC[C@@H]2[C@H]1CCN2c1ncnc2[nH]ccc12 (single isomer, unassigned) [Example 3-43] | 10 to 100 nM | –
13 | Cc1ccc(COC(=O)N2CCCC3C2CCN3c2ncnc3[nH]ccc23)cc1 (stereo not shown) [Example 3-17, 4-methylbenzyl 1-(7H-pyrrolo[2,3-d]pyrimidin-4-yl)octahydro-4H-pyrrolo[3,2-b]-pyridine-4-carboxylate] | 10 to 100 nM | –
14 | O=C(c1cnc2ccccc2c1)N1CCC[C@@H]2[C@H]1CCN2c1ncnc2[nH]ccc12 [Example 29-44, 3-{[(3aR,7aR)-1-(7H-pyrrolo[2,3-d]pyrimidin-4-yl)octahydro-4H-pyrrolo[3,2-b]pyridin-4-yl]carbonyl}quinoline] | 10 to 100 nM | –
15 | O=S(=O)(c1ccco1)N1CCC[C@@H]2[C@H]1CCN2c1ncnc2[nH]ccc12 [Example 32-4, 4-[(3aR,7aR)-4-(furan-2-ylsulfonyl)octahydro-1H-pyrrolo[3,2-b]pyridin-1-yl]-7H-pyrrolo[2,3-d]pyrimidine] | 10 to 100 nM | 14 nM
16 | CC(C(=O)N1CCC[C@@H]2[C@H]1CCN2c1ncnc2[nH]ccc12)N1CCOCC1 (mixture of isomers) [Example 29-43, 4-[(3aR,7aR)-4-(2-morpholin-4-ylpropanoyl)octahydro-1H-pyrrolo[3,2-b]pyridin-1-yl]7H-pyrrolo[2,3-d]pyrimidine] | 10 to 100 nM | –
17 | CC(C)(C)OC(=O)N1CCC[C@@H]2[C@H]1CCN2c1ncnc2[nH]ccc12 [Example 11, tert-butyl (3aR,7aR)-1-(7H-pyrrolo[2,3-d]pyrimidin-4-yl)octahydro-4H-pyrrolo[3,2-b]pyridin-4-carboxylate] | 100 to 1000 nM | –
18 | O=C(OCc1ccc(CO)cc1)N1CCC[C@@H]2[C@H]1CCN2c1ncnc2[nH]ccc12 [Example 10, 4-(hydroxymethyl)benzyl (3aR,7aR)-1-(7H-pyrrolo[2,3-d]pyrimidin-4-yl)octahydro-4H-pyrrolo[3,2-b]pyridine-4-carboxylate] | 100 to 1000 nM | –
19 | CCCCOC(=O)N1CCCC2C1CCN2c1ncnc2[nH]ccc12 (racemic) [Example 3-3, butyl 1-(7H-pyrrolo[2,3-d]pyrimidin-4-yl)octahydro-4H-pyrrolo[3,2-b]pyridine-4-carboxylate] | 10 to 100 nM | –
20 | CN(C)C(=O)N1CCC(C(=O)N2CCC[C@@H]3[C@H]2CCN3c2ncnc3[nH]ccc23)CC1 [Example 29-35, N,N-dimethyl-4-{[(3aR,7aR)-1-(7H-pyrrolo[2,3-d]pyrimidin-4-yl)octahydro-4H-pyrrolo[3,2-b]pyridin-4-yl]carbonyl}piperidine-1-carboxamide] | 10 to 100 nM | –
21 | O=C1CCCN1CC(=O)N1CCC[C@@H]2[C@H]1CCN2c1ncnc2[nH]ccc12 [Example 29-16, 1-{2-oxo-2-[(3aR,7aR)-1-(7H-pyrrolo[2,3-d]pyrimidin-4-yl)octahydro-4H-pyrrolo[3,2-b]pyridin-4-yl]ethyl}pyrrolidin-2-one] | 100 to 1000 nM | –
22 | CC(Cc1ccccc1)C(=O)N1CCC[C@@H]2[C@H]1CCN2c1ncnc2[nH]ccc12 (stereo partly drawn) [Example 29-42, 4-[(3aR,7aR)-4-(2-methyl-3-phenylpropanoyl)octahydro-1H-pyrrolo[3,2-b]pyridin-1-yl]-7H-pyrrolo[2,3-d]pyrimidine] | 10 to 100 nM | –
23 | N#Cc1ccccc1C(=O)N1CCC[C@@H]2[C@H]1CCN2c1ncnc2[nH]ccc12 [Example 29-33, 2-{[(3aR,7aR)-1-(7H-pyrrolo[2,3-d]pyrimidin-4-yl)octahydro-4H-pyrrolo[3,2-b]pyridin-4-yl]carbonyl}benzonitrile] | 10 to 100 nM | –
24 | COCC(=O)N1CCC[C@@H]2[C@H]1CCN2c1ncnc2[nH]ccc12 (single isomer, unassigned) [Example 29-8] | 100 to 1000 nM | –
25 | O=C(c1cc2ccsc2[nH]1)N1CCC[C@@H]2[C@H]1CCN2c1ncnc2[nH]ccc12 [Example 29-48, 4-[(3aR,7aR)-4-(6H-thieno[2,3-b]pyrrol-5-ylcarbonyl)octahydro-1H-pyrrolo[3,2-b]pryidin-1-yl]7H-pyrrolo[2,3-d]pyrimidine] | 100 to 1000 nM | –
26 | Cn1ccc2cc(C(=O)N3CCC[C@@H]4[C@H]3CCN4c3ncnc4[nH]ccc34)cnc21 [Example 29-50, 4-{(3aR,7aR)-4-[(1-methyl-1H-pyrrolo[2,3-b]pyridin-5-yl)carbonyl]octahydro-1H-pyrrolo[3,2-b]pyridin-1-yl}-7H-pyrrolo[2,3-d]pyrimidine] | 100 to 1000 nM | –
27 | O=C(OCc1ccc2ccccc2c1)N1CCCC2C1CCN2c1ncnc2[nH]ccc12 (stereo not shown) [Example 3-15, naphthalen-2-ylmethyl 1-(7H-pyrrolo[2,3-d]pyrimidin-4-yl)octahydro-4H-pyrrolo[3,2-b]pyridine-4-carboxylate] | 10 to 100 nM | –
28 | O=C(c1ccc2ccccc2c1)N1CCC[C@@H]2[C@H]1CCN2c1ncnc2[nH]ccc12 [Example 29-26, 4-[(3aR,7aR)-4-(naphthalen-2-ylcarbonyl)octahydro-1H-pyrrolo[3,2-b]pyridin-1-yl]-7H-pyrrolo[2,3-d]pyrimidine] | 10 to 100 nM | –
